Tested on: vesicular stomatitis virus particles (VSV) pseudotyped with EboV Zaire GP
Assay: microbe, parasite or virus in culture
Format: cell-based
Details: Vesicular stomatitis virus

Row | SMILES | IC50 [nM]
1 | O=C(CC1CCC(F)(F)CC1)NCC(=O)N1CCN(Cc2cc(F)cc3cccnc23)CC1 [Compound 1429, 2-(4,4-Difluorocyclohexyl)-N-(2-(4-((6-fluoroquinolin-8-yl)methyl)piperazin-1-yl)-2-oxoethyl)acetamide] | 950
2 | Cc1ccc(Cl)cc1CN1CCN(C(=O)CNC(=O)C2CC23CCC(F)(F)CC3)CC1 (stereo not shown) [Compound 1431, N-(2-(4-(5-Chloro-2-methylbenzyl)piperazin-1-yl)-2-oxoethyl)-6,6-difluorospiro[2.5]octane-1-carboxamide] | 550
3 | O=C(CC1CCC(F)(F)CC1)NCC(=O)N1CCN(Cc2cc(Cl)cc(Oc3ccncc3)c2)CC1 [Compound 1432, N-(2-(4-(3-Chloro-5-(pyridin-4-yloxy)benzyl)piperazin-1-yl)-2-oxoethyl)-2-(4,4-difluorocyclohexyl)acetamide] | 185
4 | [2H]C([2H])(c1cc(Cl)cc2cc[nH]c12)N1CCN(C(=O)CNC(=O)CC2CCC(F)(F)CC2)CC1 [Compound 1433, N-(2-(4-((5-Chloro-JH-indol-7-yl)methyl-d2)piperazin-1-yl)-2-oxoethyl)-2-(4,4-difluorocyclohexyl)acetamide] | > 5000
5 | COC(=O)c1cccc(-c2cc(Cl)cc(CN3CCN(C(=O)CNC(=O)CC45CC6CC(C4)C(C6)C5)CC3)c2)c1 [Compound 1441] | 248
6 | CC(=O)N1CCC(Oc2cc(F)cc(CN3CCN(C(=O)CNC(=O)C4CC45CCC(F)(F)CC5)CC3)c2)CC1 (stereo not shown) [Compound 1442] | 600
7 | CS(=O)(=O)c1ccc(COc2ccc(F)cc2CN2CCN(C(=O)CNC(=O)CC34CC5CC(CC(C5)C3)C4)CC2)cc1 [Compound 1443] | 4.5
8 | O=C(CC12CC3CC(C1)C(C3)C2)NCC(=O)N1CCN(Cc2cc(F)ccc2OCc2ccc3nonc3c2)CC1 [Compound 1444] | 25
9 | CC(=O)Nc1ccc(COc2ccc(F)cc2CN2CCN(C(=O)CNC(=O)CC34CC5CC(C3)C(C5)C4)CC2)cc1 [Compound 1445] | 710
10 | O=C(CC1CCC(F)(F)CC1)NCC(=O)N1CCN(Cc2cccc(Oc3ccccn3)c2)CC1 [Compound 1451] | > 5000
11 | CC(=O)N1CCCC(Oc2cc(F)cc(CN3CCN(C(=O)CNC(=O)C4CC45CCC(F)(F)CC5)CC3)c2)C1 (stereo not shown) [Compound 1453] | > 5000
12 | CS(=O)(=O)c1ccc(COc2ccc(F)cc2CN2CCN(C(=O)CNC(=O)CC3CCC(F)(F)CC3)CC2)cc1 [Compound 1455] | 40
13 | O=C(CC1CCC(F)(F)CC1)NCC(=O)N1CCN(Cc2cc(F)ccc2OCc2ccc3nonc3c2)CC1 [Compound 1456] | 190
14 | CS(=O)(=O)c1ccc(Oc2cc(F)cc(CN3CCN(C(=O)CNC(=O)C4CC45CCC(F)(F)CC5)CC3)c2)cc1 (stereo not shown) [Compound 1459] | 200
15 | CS(=O)(=O)c1ccc(Oc2cc(F)cc(CN3CCN(C(=O)CNC(=O)CC4CCC(F)(F)CC4)CC3)c2)cc1 [Compound 1460] | > 1000
16 | CS(=O)(=O)c1ccc(Oc2cc(Cl)cc(CN3CCN(C(=O)CNC(=O)C4CC45CCC(F)(F)CC5)CC3)c2)cc1 (stereo not shown) [Compound 1461] | 150
17 | CS(=O)(=O)c1ccc(Oc2cc(Cl)cc(CN3CCN(C(=O)CNC(=O)CC4CCC(F)(F)CC4)CC3)c2)cc1 [Compound 1462] | > 1000
18 | [2H]C([2H])(c1cc(Cl)ccc1NCC)N1CCN(C(=O)CNC(=O)C2CC23CCC(F)(F)CC3)CC1 (stereo not shown) [Compound 1534] | 200
19 | CS(=O)(=O)c1ccc(COc2ccc(Cl)cc2CN2CCN(C(=O)CNC(=O)C3CC34CCCCC4)CC2)cc1 (stereo not shown) [Compound 1539, Spiro[2.5]octane-1-carboxylic acid (2-{4-[5-chloro-2-(4-methanesulfonyl-benzyloxy)-benzyl]-piperazin-1-yl}-2-oxo-ethyl)-amide] | 100
